According to PubChem BioAssay AID330 (DTP/NCI, 2004):
“And” between values parts separate entries of the source, which are not always exact repeats. Equal entries are not always repeated. Toxic doses and inconclusive results are not listed.

System: P388 leukemia ip, CD2F1 mice, survival T/C
Experiment: NCI In Vivo Anticancer Drug Screen. Data for tumor model P388 Leukemia (intraperitoneal) in CD2F1 (CDF1) mice
Conditions: endpoint: median survival time, higher = longer survival
Outline: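 Mice carrying the transplanted tumor received test compound or vehicle. Survival was recorded in each group, and the value is the treated-group measurement divided by that of the vehicle-treated control group.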

[1] = dose: 50.0 mg/kg/injection, schedule: Q01DX005 (ip), vehicle: Klucel (hydroxypropylcellulose) (HPC)
[2] = dose: 100.0 mg/kg/injection, schedule: Q01DX005 (ip), vehicle: Klucel (hydroxypropylcellulose) (HPC)
[3] = dose: 200.0 mg/kg/injection, schedule: Q01DX005 (ip), vehicle: Klucel (hydroxypropylcellulose) (HPC)
[4] = dose: 50.0 mg/kg/injection, schedule: Q01DX009 (ip), vehicle: saline with Tween-80
[5] = dose: 50.0 mg/kg/injection, schedule: Q01DX005 (ip), vehicle: saline with Tween-80
[6] = dose: 100.0 mg/kg/injection, schedule: Q01DX005 (ip), vehicle: saline with Tween-80
[7] = dose: 200.0 mg/kg/injection, schedule: Q01DX005 (ip), vehicle: saline with Tween-80

## O=C1c2ccccc2N(Cc2cccc(F)c2)C2=NCCCC12 (stereo not drawn)
[1]
  T/C: 113 % of control
[2]
  T/C: 116 % of control
[3]
  T/C: 100 % of control

## CNC(C(=O)OC(C)(C)C)C(C)C (stereo not drawn)
dose: 25.0 mg/kg/injection, schedule: Q01DX005 (ip), vehicle: saline
  T/C: 98 % of control
dose: 50.0 mg/kg/injection, schedule: Q01DX005 (ip), vehicle: saline
  T/C: 99 % of control
dose: 100.0 mg/kg/injection, schedule: Q01DX005 (ip), vehicle: saline
  T/C: 99 % of control

## O=C(O)c1ccccc1C(=O)O.[Cu+2].[NH-]CC[NH-]
dose: 1.25 mg/kg/injection, schedule: Q04DX002 (ip), vehicle: saline with Tween-80
  T/C: 100 % of control
dose: 2.5 mg/kg/injection, schedule: Q04DX002 (ip), vehicle: saline with Tween-80
  T/C: 99 % of control
dose: 5.0 mg/kg/injection, schedule: Q04DX002 (ip), vehicle: saline with Tween-80
  T/C: 98 % of control

## Oc1ccc(C2(c3ccc(O)c(Cl)c3)CC3CCC2C3)cc1Cl (stereo not drawn)
dose: 0.79 mg/kg/injection, schedule: Q01DX009 (ip), vehicle: saline with Tween-80
  T/C: 103 % of control and 111 % of control
dose: 1.56 mg/kg/injection, schedule: Q01DX009 (ip), vehicle: saline with Tween-80
  T/C: 103 % of control and 116 % of control
dose: 3.12 mg/kg/injection, schedule: Q01DX009 (ip), vehicle: saline with Tween-80
  T/C: 103 % of control and 105 % of control
dose: 6.25 mg/kg/injection, schedule: Q01DX009 (ip), vehicle: saline with Tween-80
  T/C: 111 % of control and 94 % of control
dose: 12.5 mg/kg/injection, schedule: Q01DX009 (ip), vehicle: saline with Tween-80
  T/C: 97 % of control
dose: 25.0 mg/kg/injection, schedule: Q01DX009 (ip), vehicle: saline with Tween-80
  T/C: 98 % of control

## CN(C)C1CCc2[nH]c3c(F)cc(F)cc3c2C1 (stereo not drawn)
[4]
  T/C: 102 % of control

## N#CC(C(=O)C(=O)Nc1cccc(C(F)(F)F)c1)c1ccccc1 (stereo not drawn)
[5]
  T/C: 93 % of control
[6]
  T/C: 100 % of control

## CCOC(=O)CC(C#N)(C#N)CC(=O)OCC
[5]
  T/C: 101 % of control
[6]
  T/C: 107 % of control
[7]
  T/C: 106 % of control

## O=[N+]([O-])c1ncccc1NCCN1CCCC1
dose: 12.5 mg/kg/injection, schedule: Q01DX009 (ip), vehicle: saline
  T/C: 104 % of control
dose: 25.0 mg/kg/injection, schedule: Q01DX009 (ip), vehicle: saline
  T/C: 100 % of control
dose: 50.0 mg/kg/injection, schedule: Q01DX009 (ip), vehicle: saline
  T/C: 106 % of control and 108 % of control

## COC(OC)C1(O)CC(C(C)C)OC(=O)N1 (stereo not drawn)
dose: 100.0 mg/kg/injection, schedule: Q04DX003 (ip), vehicle: saline
  T/C: 100 % of control
dose: 200.0 mg/kg/injection, schedule: Q04DX003 (ip), vehicle: saline
  T/C: 108 % of control
dose: 400.0 mg/kg/injection, schedule: Q04DX003 (ip), vehicle: saline
  T/C: 100 % of control

## CCOC(=O)C(C#N)C1(c2ccccc2)CCCCC1 (stereo not drawn)
[4]
  T/C: 112 % of control
dose: 100.0 mg/kg/injection, schedule: Q01DX009 (ip), vehicle: saline with Tween-80
  T/C: 101 % of control
dose: 200.0 mg/kg/injection, schedule: Q01DX009 (ip), vehicle: saline with Tween-80
  T/C: 101 % of control

## Cc1cc(C)nc(NCCCCNc2nc(C)cc(C)n2)n1
[1]
  T/C: 92 % of control
[2]
  T/C: 105 % of control
[3]
  T/C: 100 % of control

## C=CN=NNc1ccccc1OC
dose: 100.0 mg/kg/injection, schedule: Q04DX003 (ip), vehicle: saline + Tween-80 + alcohol
  T/C: 107 % of control
dose: 200.0 mg/kg/injection, schedule: Q04DX003 (ip), vehicle: saline + Tween-80 + alcohol
  T/C: 105 % of control
dose: 400.0 mg/kg/injection, schedule: Q04DX003 (ip), vehicle: saline + Tween-80 + alcohol
  T/C: 107 % of control

## COc1nc(=O)n(C2C=CC(=O)O2)cc1F (stereo not drawn)
dose: 20.0 mg/kg/injection, schedule: Q01DX009 (ip), vehicle: saline
  T/C: 158 % of control and 173 % of control
dose: 40.0 mg/kg/injection, schedule: Q01DX009 (ip), vehicle: saline
  T/C: 174 % of control and 196 % of control
dose: 80.0 mg/kg/injection, schedule: Q01DX009 (ip), vehicle: saline
  T/C: 102 % of control

## CC12CCC(C3(C)CCC4CC3(O)C4)C(CO)C1CCC2=O (stereo not drawn)
dose: 7.5 mg/kg/injection, schedule: Q01DX005 (ip), vehicle: Klucel (hydroxypropylcellulose) (HPC)
  T/C: 96 % of control
dose: 15.0 mg/kg/injection, schedule: Q01DX005 (ip), vehicle: Klucel (hydroxypropylcellulose) (HPC)
  T/C: 103 % of control
dose: 30.0 mg/kg/injection, schedule: Q01DX005 (ip), vehicle: Klucel (hydroxypropylcellulose) (HPC)
  T/C: 98 % of control

## c1ccc(-c2ncc3n(-c4ccccc4)cnn23)cc1
dose: 100.0 mg/kg/injection, schedule: Q04DX002 (ip), vehicle: saline with Tween-80
  T/C: 95 % of control
dose: 200.0 mg/kg/injection, schedule: Q04DX002 (ip), vehicle: saline with Tween-80
  T/C: 86 % of control
dose: 400.0 mg/kg/injection, schedule: Q04DX002 (ip), vehicle: saline with Tween-80
  T/C: 89 % of control

## CC1C(O)CC23COC(=O)C2=CCCC3C1(C)CCC1=CC(=O)OC1 (stereo not drawn)
dose: 8.75 mg/kg/injection, schedule: Q01DX005 (ip), vehicle: Klucel (hydroxypropylcellulose) (HPC)
  T/C: 101 % of control
dose: 17.5 mg/kg/injection, schedule: Q01DX005 (ip), vehicle: Klucel (hydroxypropylcellulose) (HPC)
  T/C: 106 % of control
dose: 35.0 mg/kg/injection, schedule: Q01DX005 (ip), vehicle: Klucel (hydroxypropylcellulose) (HPC)
  T/C: 92 % of control
dose: 70.0 mg/kg/injection, schedule: Q01DX005 (ip), vehicle: Klucel (hydroxypropylcellulose) (HPC)
  T/C: 97 % of control

## CCOP(=O)(N=Nc1cccnc1)OCC
dose: 1.56 mg/kg/injection, schedule: Q01DX009 (ip), vehicle: water
  T/C: 107 % of control
dose: 3.12 mg/kg/injection, schedule: Q01DX009 (ip), vehicle: water
  T/C: 101 % of control
dose: 6.25 mg/kg/injection, schedule: Q01DX005 (ip), vehicle: water
  T/C: 100 % of control
dose: 6.25 mg/kg/injection, schedule: Q01DX009 (ip), vehicle: water
  T/C: 101 % of control
dose: 12.5 mg/kg/injection, schedule: Q01DX005 (ip), vehicle: water
  T/C: 96 % of control
dose: 12.5 mg/kg/injection, schedule: Q01DX009 (ip), vehicle: water
  T/C: 112 % of control
dose: 25.0 mg/kg/injection, schedule: Q01DX005 (ip), vehicle: water
  T/C: 102 % of control
dose: 25.0 mg/kg/injection, schedule: Q01DX009 (ip), vehicle: water
  T/C: 117 % of control
dose: 50.0 mg/kg/injection, schedule: Q01DX005 (ip), vehicle: water
  T/C: 103 % of control
dose: 100.0 mg/kg/injection, schedule: Q01DX005 (ip), vehicle: water
  T/C: 103 % of control

## CC1=C(C(=O)CC(=O)Nc2ccc(Cl)c(Cl)c2)Sc2ccccc2N1
dose: 60.0 mg/kg/injection, schedule: Q01DX005 (ip), vehicle: saline with Tween-80
  T/C: 96 % of control
dose: 120.0 mg/kg/injection, schedule: Q01DX005 (ip), vehicle: saline with Tween-80
  T/C: 92 % of control
dose: 240.0 mg/kg/injection, schedule: Q01DX005 (ip), vehicle: saline with Tween-80
  T/C: 99 % of control

## OCC1=CC(O)C2C=COC(C3OC(CO)C(O)C(O)C3O)C12 (stereo not drawn)
dose: 60.0 mg/kg/injection, schedule: Q01DX005 (ip), vehicle: saline
  T/C: 103 % of control
dose: 120.0 mg/kg/injection, schedule: Q01DX005 (ip), vehicle: saline
  T/C: 102 % of control
dose: 240.0 mg/kg/injection, schedule: Q01DX005 (ip), vehicle: saline
  T/C: 100 % of control

## CC(NNC(=S)N1CCCCCC1)c1cc2ccccc2cn1 (stereo not drawn)
[5]
  T/C: 108 % of control and 98 % of control
[6]
  T/C: 112 % of control
[7]
  T/C: 123 % of control
dose: 400.0 mg/kg/injection, schedule: Q01DX005 (ip), vehicle: saline with Tween-80
  T/C: 153 % of control

## O=C(O)CCC(C(=O)O)N(Cc1ccccc1)Cc1ccccc1 (stereo not drawn)
dose: 100.0 mg/kg/injection, schedule: Q01DX001 (ip), vehicle: Klucel (hydroxypropylcellulose) (HPC)
  T/C: 105 % of control
dose: 200.0 mg/kg/injection, schedule: Q01DX001 (ip), vehicle: Klucel (hydroxypropylcellulose) (HPC)
  T/C: 100 % of control
dose: 400.0 mg/kg/injection, schedule: Q01DX001 (ip), vehicle: Klucel (hydroxypropylcellulose) (HPC)
  T/C: 105 % of control

## CNc1ccc(O)cc1
dose: 5.0 mg/kg/injection, schedule: Q01DX009 (ip), vehicle: saline sonified
  T/C: 100 % of control
dose: 10.0 mg/kg/injection, schedule: Q01DX009 (ip), vehicle: saline sonified
  T/C: 104 % of control
dose: 20.0 mg/kg/injection, schedule: Q01DX009 (ip), vehicle: saline sonified
  T/C: 100 % of control

## C[C@@H]1CN(c2ccccc2)C[C@@H](C)OS(=O)O1
dose: 100.0 mg/kg/injection, schedule: Q04DX002 (ip), vehicle: Klucel (hydroxypropylcellulose) (HPC)
  T/C: 104 % of control
dose: 200.0 mg/kg/injection, schedule: Q04DX002 (ip), vehicle: Klucel (hydroxypropylcellulose) (HPC)
  T/C: 97 % of control
dose: 400.0 mg/kg/injection, schedule: Q04DX002 (ip), vehicle: Klucel (hydroxypropylcellulose) (HPC)
  T/C: 100 % of control
